From patent US8178574B2, “Tosylate salt of trans-N-isobutyl-3-fluoro-3-[3-fluoro-4-(pyrrolidin-1-yl-methyl)-phenyl] cyclobut anecarboxamide” (Pfizer Inc., priority 2007, dated 2012) come the findings set out here.

Structures can show the parent of a compound that is named as a salt.

Data set [1] is described as follows: Hygroscopicity by dynamic vapor sorption (VTI, kinetic experiment). The data set is classed as physicochemical. The method, then:
Hygroscopicity was assessed using a dynamic vapor sorption technique in which an accurately weighed sample is subjected to progressively changing water vapor pressure while simultaneously recording the weight change. The experiment is conducted isothermally at 25° C.
During the initial drying cycle (25° C., 1-3% RH), approximately 0.8% weight loss was observed, which is consistent with an anhydrous form. The sample gained 0.5% of its original weight when exposed to relative humidities from 0% to 90% at 25° C. (CQG≦2% wt. gain at 90% RH). […] FIG. 5 (VTI Moisture Sorption Data) reports results achieved in a step isotherm at a heating rate of 1° C./minute.

A short description of data set [2]: Aqueous solubility of the crystalline compound (RP-HPLC after temperature cycling). The class given is physicochemical. The following applies: for solubility thermodynamic at 25 h: aqueous buffer. The method, then: The following information was determined in regard of aqueous solubility. […] These values represent the solubility of the crystalline compound determined via RP-HPLC analysis after subjecting the drug media mixture to a temperature cycling program (40° C. for 8 hours, 15° C. for 5 hours, and 25° C. for 12 hours).

For `CC(C)CNC(=O)[C@H]1C[C@@](F)(c2ccc(CN3CCCC3)c(F)c2)C1` [tosylate salt of the invention], in data set [1] (25° C., 1-3% RH), the “weight loss during initial drying cycle” value was “approximately 0.8%”. For the same compound, the “hygroscopicity (in words)” value in data set [1] (kinetic experiment (VTI), 25° C.) was “very slightly hygroscopic”. In data set [1] (relative humidities from 0% to 90% at 25° C.), the “weight gain (of original weight)” value amounted to 0.5%. Moreover, the solubility in data set [2] (0.1M phosphate buffered saline with 0.5 weight percent sodium taurocholate/phosphatidyl choline salts, final pH 7.4) amounted to 7.0 mgA/mL. In addition, the solubility (thermodynamic) at 25 h turned out to be 5000 µg/mL in data set [2] (0.1M phosphate buffered saline, final pH 6.3, temperature cycling 40/15/25° C.) and 8400 µg/mL in data set [2] (unbuffered water, final pH 4.7).

The term thermodynamic solubility denotes solubility found after equilibrating the solid with the medium.
